Test results as given in US11492348B2, “Tri-substituted aryl and heteroaryl derivatives as modulators of PI3-kinase and autophagy pathways” (Neuropore Therapies, Inc., priority 2018, dated 2022).

Target: PI3Kα (Homo sapiens (Human), UniProt P42336)
Experiment: Inhibition of PI3Kα (ADP-Glo kinase activity assay, ATP to ADP conversion)
Format: biochemical
Conditions: 25 μM PIP2:PS, 60 μM ATP, 30 min reaction, luminescence; for IC50: read-out: PI3Ka IC50
Experimental: Quantification of ATP to ADP conversion as a measure of PI3Kα activity. Active PI3Kα (Life Technologies), in the presence or absence of PI3Kα inhibitor, was reacted with PIP2:PS (Life Technologies), a substrate specifically optimized for use with Class I PI3 kinases, and ultrapure ATP (Promega). The conversion of ATP to ADP by PI3Kα was measured as luminescence signal via Promega ADP-Glo kinase activity assay. Assay was validated using published PI3Kα inhibitors LY294002, PI-103, BYL719, GDC0198 and also DMSO vehicle control.
Compounds were prepared at 100× final concentration as a 12-point, 1:3 serial-dilution in DMSO series, with DMSO control as 12th point. Compound was then diluted in (25 mM HEPES pH 7.5, 1 mM EGTA, 0.3% CHAPS) prior to addition to PI3Kα. Active PI3Kα diluted to 0.24 ng/μL (1.1 nM) in (50 mM HEPES pH 7.5, 6 mM MgCl2, 1 mM EGTA, 200 mM NaCl, 0.03% CHAPS, 8 mM DTT) was incubated with compound for 0 hr and 3 hr prior to the start of the reaction. 25 μM PIP2:PS and 60 μM ATP were diluted from stock in (25 mM HEPES pH 7.5, 1 mM EGTA, 0.3% CHAPS) and added to initiate the PI3Kα reaction. Reaction time was 30 minutes. ATP to ADP conversion was measured in Luminescence Counts on DTX880 Plate Reader (Beckman Coulter). Compound IC50s were reported using GraphPad Prism software. Analytical method was non-linear regression, 4-parameter curve fit with bottom fit to validated PI3Kα inhibitor reference controls and no top fit (floating top).

PI3Kα, sequence (P42336 whole entry): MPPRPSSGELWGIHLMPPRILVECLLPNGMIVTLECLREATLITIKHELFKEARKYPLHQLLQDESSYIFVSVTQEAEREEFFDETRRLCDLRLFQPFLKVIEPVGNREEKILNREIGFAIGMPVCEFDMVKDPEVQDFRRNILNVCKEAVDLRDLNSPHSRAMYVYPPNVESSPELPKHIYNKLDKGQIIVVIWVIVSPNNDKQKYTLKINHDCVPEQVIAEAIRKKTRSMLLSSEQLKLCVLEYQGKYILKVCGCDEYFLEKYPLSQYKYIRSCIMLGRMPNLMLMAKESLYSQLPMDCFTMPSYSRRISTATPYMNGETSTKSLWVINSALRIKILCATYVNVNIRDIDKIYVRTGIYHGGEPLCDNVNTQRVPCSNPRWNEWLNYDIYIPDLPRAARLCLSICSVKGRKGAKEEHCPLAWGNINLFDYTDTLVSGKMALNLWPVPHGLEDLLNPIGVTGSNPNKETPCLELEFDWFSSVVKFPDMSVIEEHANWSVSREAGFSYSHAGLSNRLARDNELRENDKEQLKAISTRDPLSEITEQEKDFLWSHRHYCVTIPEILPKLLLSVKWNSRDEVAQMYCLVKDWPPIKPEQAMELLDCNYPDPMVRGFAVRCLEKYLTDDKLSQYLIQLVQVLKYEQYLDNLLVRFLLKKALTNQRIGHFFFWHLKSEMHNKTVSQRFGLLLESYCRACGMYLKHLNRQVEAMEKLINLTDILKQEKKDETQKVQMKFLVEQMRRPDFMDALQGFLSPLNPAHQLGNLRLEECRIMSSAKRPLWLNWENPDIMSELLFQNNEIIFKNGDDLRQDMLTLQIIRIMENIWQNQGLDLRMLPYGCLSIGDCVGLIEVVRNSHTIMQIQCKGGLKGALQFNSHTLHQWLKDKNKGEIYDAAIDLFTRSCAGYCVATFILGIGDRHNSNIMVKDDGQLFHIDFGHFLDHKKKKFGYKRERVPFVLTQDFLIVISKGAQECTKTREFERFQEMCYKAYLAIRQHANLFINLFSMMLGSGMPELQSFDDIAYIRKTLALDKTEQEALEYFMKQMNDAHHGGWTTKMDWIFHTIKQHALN
PI3Kα, sequence (P27986 whole entry partner): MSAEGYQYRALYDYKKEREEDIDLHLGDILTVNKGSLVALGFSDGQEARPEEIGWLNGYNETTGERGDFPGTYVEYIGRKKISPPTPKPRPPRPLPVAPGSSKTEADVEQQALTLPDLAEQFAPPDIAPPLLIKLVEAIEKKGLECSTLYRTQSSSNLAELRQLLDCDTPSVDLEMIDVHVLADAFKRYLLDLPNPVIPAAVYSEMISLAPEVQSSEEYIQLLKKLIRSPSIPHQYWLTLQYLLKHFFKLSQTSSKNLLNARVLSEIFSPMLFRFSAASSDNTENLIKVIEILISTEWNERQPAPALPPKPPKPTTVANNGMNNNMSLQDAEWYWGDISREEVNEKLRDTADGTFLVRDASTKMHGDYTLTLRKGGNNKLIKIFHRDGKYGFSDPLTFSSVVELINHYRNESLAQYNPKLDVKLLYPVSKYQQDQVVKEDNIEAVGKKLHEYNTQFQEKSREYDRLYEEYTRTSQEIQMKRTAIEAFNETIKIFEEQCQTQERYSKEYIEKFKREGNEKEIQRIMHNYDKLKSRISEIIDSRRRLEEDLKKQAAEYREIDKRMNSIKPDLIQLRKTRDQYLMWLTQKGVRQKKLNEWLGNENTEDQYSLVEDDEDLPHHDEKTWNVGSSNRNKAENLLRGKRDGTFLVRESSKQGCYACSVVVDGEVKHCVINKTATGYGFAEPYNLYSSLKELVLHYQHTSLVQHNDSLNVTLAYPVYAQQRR

PI3Ka IC50 | IC50 | SMILES
1.7 nM | – | Nc1ncc(-c2cc(S(=O)(=O)C3CCOc4ccccc43)cc(N3CCOCC3)n2)cn1 (racemic) [Compound 143, 5-(4-(chroman-4-ylsulfonyl)-6-morpholinopyridin-2-yl)pyrimidin-2-amine]
– | 4.5 nM | Nc1ncc(-c2cc(S(=O)(=O)C3CCOc4ccccc43)cc(N3CCOCC3)n2)cn1 (single isomer, unassigned; (+)) [(+) 143, 5-(4-(chroman-4-ylsulfonyl)-6-morpholinopyridin-2-yl)pyrimidin-2-amine]
– | 1 nM | Nc1ncc(-c2cc(S(=O)(=O)C3CCOc4ccccc43)cc(N3CCOCC3)n2)cn1 (single isomer, unassigned; (-)) [(−) 143, 5-(4-(chroman-4-ylsulfonyl)-6-morpholinopyridin-2-yl)pyrimidin-2-amine]
5000 nM | – | COc1ncc(-c2cc(N3CCOCC3)cc(S(=O)(=O)c3ccccc3)c2)cn1 [Compound 2, 4-(3-(2-methoxypyrimidin-5-yl)-5-(phenylsulfonyl)phenyl)morpholine]
1800 nM | – | Nc1ncc(-c2cc(N3CCOCC3)cc(S(=O)(=O)c3cccc(C(F)(F)F)c3)c2)cn1 [Compound 7, 5-(3-morpholino-5-((3-(trifluoromethyl)phenyl)sulfonyl)phenyl) pyrimidin-2-amine]
1500 nM | – | Nc1ncc(-c2cc(N3CCOCC3)cc(S(=O)(=O)c3ccc4ccccc4c3)c2)cn1 [Compound 9, 5-(3-morpholino-5-(naphthalen-2-ylsulfonyl)phenyl)pyrimidin-2-amine]
7300 nM | – | Nc1ncc(-c2cc(N3CCOCC3)cc(S(=O)(=O)c3ccc(C(F)(F)F)cc3)c2)cn1 [Compound 14, 5-(3-morpholino-5-((4-(trifluoromethyl)phenyl)sulfonyl)phenyl) pyrimidin-2-amine]
1100 nM | – | Nc1ncc(-c2cc(N3CCOCC3)cc(S(=O)(=O)c3ccc(N4CCOCC4)cc3)c2)cn1 [Compound 36, 5-(3-morpholino-5-((4-morpholinophenyl)sulfonyl)phenyl)pyrimidin-2-amine]
500 nM | – | Nc1ncc(-c2cc(N3CCOCC3)cc(S(=O)(=O)C3CNC3)c2)cn1 [Compound 61, 5-(3-(azetidin-3-ylsulfonyl)-5-morpholinophenyl)pyrimidin-2-amine]

The next lines start with the molecule.

SMILES | PI3Ka IC50 | IC50
Nc1ncc(-c2cc(N3CCOCC3)cc(S(=O)(=O)c3ccccc3)c2)c(C(F)(F)F)n1 [Compound 3, 5-(3-morpholino-5-(phenylsulfonyl)phenyl)-4-(trifluoromethyl)pyrimidin-2-amine] | 2000 nM | –
CN(C)c1ncc(-c2cc(N3CCOCC3)cc(S(=O)(=O)c3ccccc3)c2)cn1 [Compound 4, N,N-dimethyl-5-(3-morpholino-5-(phenylsulfonyl)phenyl)pyrimidin-2-amine] | 11000 nM | –
COc1ccc(-c2cc(N3CCOCC3)cc(S(=O)(=O)c3ccccc3)c2)cn1 [Compound 5, 4-(3-(6-methoxypyridin-3-yl)-5-(phenylsulfonyl)phenyl)morpholine] | 12000 nM | –
Nc1cc(C(F)(F)F)c(-c2cc(N3CCOCC3)cc(S(=O)(=O)c3ccccc3)c2)cn1 [Compound 6, 5-(3-morpholino-5-(phenylsulfonyl)phenyl)-4-(trifluoromethyl)pyridin-2-amine] | 3800 nM | –
CNc1ncc(-c2cc(N3CCOCC3)cc(S(=O)(=O)c3ccccc3)c2)cn1 [Compound 16, N-methyl-5-(3-morpholino-5-(phenylsulfonyl)phenyl)pyrimidin-2-amine] | 1500 nM | –
CC(C)(C)OC(=O)N1CCN(c2cc(-c3cnc(N)nc3)cc(S(=O)(=O)c3ccccc3)c2)CC1 [Compound 24, tert-butyl 4-(3-(2-aminopyrimidin-5-yl)-5-(phenylsulfonyl)phenyl)piperazine-1-carboxylate] | 21000 nM | –
Nc1ncc(-c2cc(N3CCCCC3)cc(S(=O)(=O)c3ccccc3)c2)cn1 [Compound 25, 5-(3-(phenylsulfonyl)-5-(piperidin-1-yl)phenyl)pyrimidin-2-amine] | 30000 nM | –
CNc1ncc(-c2cc(N3CCOCC3)cc(S(=O)(=O)Cc3ccccc3)c2)cn1 [Compound 31, 5-(3-(benzylsulfonyl)-5-morpholinophenyl)-N-methylpyrimidin-2-amine] | 660 nM | –
Nc1ncc(-c2cc(N3CCOCC3)cc(S(=O)(=O)Cc3ccccc3)c2)c(C(F)(F)F)n1 [Compound 33, 5-(3-(benzylsulfonyl)-5-morpholinophenyl)-4-(trifluoromethyl)pyrimidin-2-amine] | 980 nM | –
Cc1cn2cc(-c3cc(N4CCOCC4)cc(S(=O)(=O)Cc4ccccc4)c3)cnc2n1 [Compound 34, 4-(3-(benzylsulfonyl)-5-(2-methylimidazo[1,2-a]pyrimidin-6-yl)phenyl)morpholine] | 13000 nM | –
CC(C)(O)CNc1ccc(S(=O)(=O)c2cc(-c3cnc(N)nc3)cc(N3CCOCC3)c2)cc1 [Compound 37, 1-((4-((3-(2-aminopyrimidin-5-yl)-5-morpholinophenyl)sulfonyl)phenyl)amino)-2-methylpropan-2-ol] | 2000 nM | –
CCNC(=O)Nc1ccc(-c2cc(N3CCOCC3)cc(S(=O)(=O)Cc3ccc(F)cc3)c2)cc1OC [Compound 40, 1-ethyl-3-(3′-((4-fluorobenzyl)sulfonyl)-3-methoxy-5′-morpholino-[1,1′-biphenyl]-4-yl)urea] | 6500 nM | –
O=C1COc2cc(-c3cc(N4CCOCC4)cc(S(=O)(=O)Cc4ccc(F)cc4)c3)ccc2N1 [Compound 42, 7-(3-((4-fluorobenzyl)sulfonyl)-5-morpholinophenyl)-2H-benzo[b][1,4]oxazin-3(4H)-one] | 4700 nM | –
COc1ccc(-c2cc(N3CCOCC3)cc(S(=O)(=O)Cc3ccc(F)cc3)c2)cc1N [Compound 43, 3′-((4-fluorobenzyl)sulfonyl)-4-methoxy-5′-morpholino-[1,1′-biphenyl]-3-amine] | 11000 nM | –
COc1nc(N)ccc1-c1cc(N2CCOCC2)cc(S(=O)(=O)Cc2ccc(F)cc2)c1 [Compound 44, 5-(3-((4-fluorobenzyl)sulfonyl)-5-morpholinophenyl)-6-methoxypyridin-2-amine] | 13000 nM | –
O=S(=O)(Cc1ccc(F)cc1)c1cc(-c2ccc3c(c2)OCCN3)cc(N2CCOCC2)c1 [Compound 45, 7-(3-((4-fluorobenzyl)sulfonyl)-5-morpholinophenyl)-3,4-dihydro-2H-benzo[b][1,4]oxazine] | 5900 nM | –
O=S(=O)(Cc1ccc(F)cc1)c1cc(-c2cccc(OC(F)(F)F)c2)cc(N2CCOCC2)c1 [Compound 46, 4-(5-((4-fluorobenzyl)sulfonyl)-3′-(trifluoromethoxy)-[1,1′-biphenyl]-3-yl)morpholine] | 19000 nM | –
COc1cncc(-c2cc(N3CCOCC3)cc(S(=O)(=O)Cc3ccc(F)cc3)c2)c1 [Compound 55, 4-(3-((4-fluorobenzyl)sulfonyl)-5-(5-methoxypyridin-3-yl)phenyl)morpholine] | 12000 nM | –
Nc1ncc(-c2cc(N3CCOCC3)cc(S(=O)(=O)CC3CCC(F)(F)CC3)c2)cn1 [Compound 64, 5-(3-(((4,4-difluorocyclohexyl)methyl)sulfonyl)-5-C21H26F2N4O3Smorpholinophenyl) pyrimidin-2-amine] | 1100 nM | –
